According to PMC9311641, “Antitubercular, Cytotoxicity, and Computational Target Validation of Dihydroquinazolinone Derivatives” (Antibiotics, 2022):
Values after ≈ are worked out from the molar mass of the structure shown. Values joined by “and” are separate entries in the source; they are usually repeats but may differ in a detail not shown here. Equal values may be shown once.

Columns and labels:
Assay type in all cases: cell-based
[1] = system: Mycobacterium tuberculosis H37Rv (ATCC 25177); assay: Whole-cell anti-TB MIC, Resazurin Microplate Assay (REMA); conditions: MTB H37Rv; for MIC: Mycobacterium tuberculosis, REMA, read-out: Level of Activity (MIC), Susceptible (H37Rv)
[2] = system: MDR strains of Mycobacterium tuberculosis; assay: as above; conditions: for Level of Activity (MIC), MDR: MDR MTB strains, REMA; for MIC: Mycobacterium tuberculosis, read-out: Level of Activity (MIC), MDR
MTT cytotoxicity assay = conditions: mean ± SD of three replicates
Procedure: (§1) Fibroblast cells were cultured in Iscove’s Modified Dulbecco’s Medium (Euro Clone, Italy) as recommended by ATCC. The media was supplemented with 10% heat-inactivated fetal bovine serum (FBS) (Ebsdorfergrund, Germany), 1% of 2 mM L-glutamine, 100 U/mL penicillin, and 100 µg/mL streptomycin. According to the cells’ growth profile, fibroblast-seeding density was 1 × 10^5 cell/well. Cell viability was determined by trypan blue exclusion using a hemocytometer.
(§2) The MTT colorimetric assay was used to assess the effect of the synthesized compounds on the viability of the fibroblast cell lines. […] A volume of 10 mL of the culture media was added, and the cell suspension was centrifuged at 1000 rpm for 10 min. The pellets were resuspended in a 10 mL medium to make a single-cell suspension. […] The cell suspension was diluted to give the optimal seeding density, and 100 µL of the cell suspension was plated in a 96-well plate. Cells were cultured at 37 °C in a humidified atmosphere of 5% CO2. After 24 h incubation, the cells were treated with 100 µM of the synthesized compounds (diluted in culture media to yield the required concentration) and then incubated for 72 h. At the end of the exposure time, 15 µL of MTT stock solution (5 mg/mL in sterile PBS, pH 7.4) (Promega, Madison, WI, USA) was added to each well and incubated for 3 h. After that, 100 µL of solubilizing stop solution was added to each well to solubilize the dark violet formazan crystals. The optical densities at 570 nm were then measured using a micro-plate reader (Biotek, Winooski, VT, USA), and the percentage of cell viability was calculated with respect to a control corresponding to untreated cells.

[3] = system: normal human skin fibroblast cells (CCD-1064SK); assay: MTT cytotoxicity assay; conditions: 72 h, mean ± SD of three replicates
Procedure: as §1, §2

[4] = human, CCD-1064SK normal human skin fibroblast cells

Compound | MIC [1] [µg/mL] | Level of Activity (MIC), MDR [2] | cytotoxicity at 72 h, 100 µM (MTT cytotoxicity assay; [4]) [%] | MIC [2] [µg/mL] | cytotoxicity at 72 h, 100 µM (MTT cytotoxicity assay; normal human fibroblast cells) [%] | MIC against susceptible H37Rv M. tuberculosis strain [1] [µg/mL] | Cytotoxicity (%) at 100 µM [3]
CN(C)c1ccc(C2NC(=O)c3ccccc3N2)cc1 (centres unmarked) [Compound 3h] | > 128 | No activity | 54.6 ± 2.8 |  |  |  | 
COc1ccc(C2NC(=O)c3ccccc3N2)cc1 (centres unmarked) [Compound 3a] | 64 (≈ 252 µM) |  |  | > 128 | 28.8 ± 0.6 |  | 
O=C1NC(c2c[nH]cn2)Nc2ccccc21 (centres unmarked) [Compound 3k] | 4 (≈ 18.7 µM) |  |  | 16 (≈ 74.7 µM) | 19.2 ± 4.9 | 4 (≈ 18.7 µM) | 
O=C1NC(c2cc(Br)ccc2F)Nc2ccccc21 (centres unmarked) [Compound 3l, 2-(5-bromo-2-fluorophenyl)-2,3-dihydroquinazolin-4(1H)-one] | 2 (≈ 6.23 µM) |  | 36 | > 64 |  | 2 (≈ 6.23 µM) | 36.3 ± 4.2%
N#Cc1ccc(C2NC(=O)c3ccccc3N2)cc1 (centres unmarked) [Compound 3b] | > 64 | No activity | 19.5 ± 5 |  |  |  | 
O=C1NC(c2cccc(I)c2)Nc2ccccc21 (centres unmarked) [Compound 3e] | 128 (≈ 366 µM) | No activity | 72 ± 8.3 |  |  |  | 
O=C1NC(c2cccc([N+](=O)[O-])c2)Nc2ccccc21 (centres unmarked) [Compound 3i] | > 64 | No activity | 24.1 ± 3.9 |  |  |  | 
COc1cc([N+](=O)[O-])ccc1C1NC(=O)c2ccccc2N1 (centres unmarked) [Compound 3m] | 2 (≈ 6.68 µM) |  | 31 | > 64 |  | 2 (≈ 6.68 µM) | 30% and 30.9 ± 8.8%
O=C1NC(c2ccc(F)cc2)Nc2ccccc21 (centres unmarked) [Compound 3j] | > 64 | No activity | 44.1 ± 11.5 |  |  |  | 
O=C1NC(c2ccc(OC(F)(F)F)cc2)Nc2ccccc21 (centres unmarked) [Compound 3d] | > 64 | No activity | 47.6 ± 1.6 |  |  |  | 
COc1ccc(C2NC(=O)c3ccccc3N2)cc1OC (centres unmarked) [Compound 3g] | 64 (≈ 225 µM) | No activity | 32.5 ± 11 |  |  |  | 
O=C1NC(c2ccc(Cl)cc2)Nc2ccccc21 (centres unmarked) [Compound 3f] | > 128 | No activity | 57.6 ± 3.7 |  |  |  | 
O=C1NC(c2cccc(O)c2)Nc2ccccc21 (centres unmarked) [Compound 3c] | 8 (≈ 33.3 µM) |  | 58.5 ± 1.1 | > 32 |  |  | 
